In patent US4829069A, “4-Thioquinazoline derivatives as antiulcer agents” (Nisshin Flour Milling Co., Ltd., priority 1987, dated 1989):

Tests used:
Toxicity, LD50 (P.O.) = conditions: in vivo, po
[1] = system: indomethacin induced ulcer; experiment: Antiulcer activity: suppression of indomethacin induced ulcer; assay type: in vivo, mouse (ddy series male mice); conditions: 100 mg/kg to the stomach 30 minutes before 20 mg/kg indomethacin p.o.; mean ulcer index vs control group, 4 hours after indomethacin
Protocol: The antiulcer activity of the compounds of this invention was determined by the following method. Four-week-old ddy series male mice were used as the test animals after they were fasted for 24 hours. Each test compound suspended in a 1% gum arabic solution was administered to the stomach of each mouse at a dose of 100 mg/kg, and then, after 30 minutes, 20 mg/kg of indomethacin was administered orally. Four hours after the administration of indomethacin, the stomach of mouse was extirpated and the length of ulcers was measured. Then, the ulcer index was determined by the total sum of the scores as calculated in Table 1. The mean ulcer index of each group was calculated and the suppression rate against the control group in terms of difference in the mean ulcer index was determined.

[2] = background; cited from earlier work

c1ccc(CSc2ncnc3ccccc23)nc1 [4-(2-Pyridylmethylthio)-quinazoline]
LD50 (Toxicity, LD50 (P.O.)): > 1000 mg/kg
reversion test (Reversion test): negative
Suppression rate of indomethacin induced ulcer, 100 mg/kg, p.o. [1]: 94

c1ccc2nc(CSc3ncnc4ccccc34)ccc2c1 [4-(2-Quinolylmethylthio)-quinazoline]
Suppression rate of indomethacin induced ulcer, 100 mg/kg, p.o. [1]: 70

c1ccc2c(SCc3ccncc3)ncnc2c1 [4-(4-Pyridylmethylthio)-quinazoline]
Suppression rate of indomethacin induced ulcer, 100 mg/kg, p.o. [1]: 92

CCN(CC)CCSc1ncnc2ccccc12 [4-[2-(Diethylamino)ethylthio]-quinazoline]
Suppression rate of indomethacin induced ulcer, 100 mg/kg, p.o. [1]: 49

COc1cc(CSc2ncnc3ccccc23)ncc1C [4-[(4-Methoxy-5-methylpyridin-2-yl)methylthio]-quinazoline]
Suppression rate of indomethacin induced ulcer, 100 mg/kg, p.o. [1]: 81

Cc1ccnc(CSc2ncnc3ccccc23)c1 [4-[(4-Methylpyridin-2-yl)methylthio]-quinazoline]
Suppression rate of indomethacin induced ulcer, 100 mg/kg, p.o. [1]: 70

CN/C(=N/CCSCc1nc[nH]c1C)NC#N [Cimetidine, reference compound]
side effects [2]: gynecomatism
Suppression rate of indomethacin induced ulcer, 100 mg/kg, p.o. [1]: 40
